Assay results taken from patent US20190170731A1, “METHOD TO MEASURE RELATIVE UTILIZATION OF AEROBIC GLYCOLYSIS BY POSITIONAL ISOTOPIC DISCRIMINATION” (priority 2016, published 2019).

Experiments:
Format in all cases: cell-based
MDA-MB-231 cells = test: [1-13C]glucose labeling and LC-MS measurement of relative glycolysis rate; settings: 10 μM KU-55933, MDA-MB-231 cells, 10 mM D-[1-13C]-glucose; samples at 1, 3 and 6 hours of labeling (as well as 9 hours, p<0.05)
Method: FIGS. 7A-B. A) Sub-confluent MDA-MB-231 cells were serum-starved overnight. Cells were washed with PBS and were then pre-treated with 10 μM KU-55933 (Halaby et al., 2008) for 30 minutes in the glucose- and serum-free medium. Fluorescently-tagged 2-NBDG (30 μg/ml) was then added for 30 minutes. Cells were treated with 100 nM insulin for another 45 minutes. Glucose Uptake was then measured following the manufacturer's instructions (Cayman Chemical). B) MDA-MB-231 cells were cultured in DMEM containing 10% FBS. After reaching […] confluent, cells were serum-starved overnight. Cells were then washed with PBS and incubated in serum- and glucose/pyruvate-free DMEM for 90 minutes. The labeling was initiated after replacing the medium with fresh serum- and glucose/pyruvate-free DMEM supplemented with 10 mM D-[1-^13C]-glucose ±10 μM KU-55933. […] 40 μL of medium was taken and diluted with 160 μL of methanol to precipitate the proteins. For LC-MS analysis, 2 μL of the supernatant were injected and analyzed with the Q-Exactive mass spec. The bar graph represents the average relative glycolysis rate ±SEM from 3 individual experiments (*p<0.05). […] These breast cancer cells were grown in DMEM supplemented with antibiotics and 10% fetal bovine serum. […] The relative rate of glycolysis for each cancer cell line was measured by the incorporation of [1-^13C]glucose into [3-^13C]lactate. […]

MDA-MB-231 = test: 2-NBDG glucose uptake assay; settings: MDA-MB-231, 100 nM insulin for 45 minutes, 30 μg/mL 2-NBDG
Method: (§1) FIG. 2. […] Sub-confluent cells were serum-starved overnight. Cells were then washed with PBS and cell culture medium was replaced with glucose- and serum-free medium. Fluorescently-tagged 2-NBDG (Cayman Chemical) was then added at a concentration of 30 μg/mL for 30 minutes. After addition of 2-NBDG, cells were treated with 100 nM insulin for another 45 minutes. Glucose uptake was then measured as described hereinbelow. The graph represents the averages of 2-NBDG glucose uptake ±SEM from 3 individual experiments (p<0.05).
(§2) Glucose uptake was analyzed using a 2-NBDG (2-deoxy-2-[(7-nitro-2,1,3-benzoxadiazol-4-yl)amino]-D-glucose, a fluorescently labeled 2-deoxyglucose) glucose uptake kit from Cayman Chemical. Briefly, cells were plated at 200,000 cells/well in a 24-well plate and allowed to grow to sub-confluency. Cells were then serum starved overnight. The next morning, cells were incubated in serum- and glucose-free medium for 30 minutes. Cells were then incubated with 30 μg/mL 2-NBDG for another 30 minutes. After incubation, cells were treated with 100 nM insulin for 45 minutes. Cells were then transferred to a clear-bottom black 96 cell plate. The plate was subjected to centrifugation at 400×g for 5 minutes. […] Signal intensity was measured with a Synergy 2 (BioTek) microplate reader at excitation/emission=485/535 nm.

MDA-MB-453 = test: 2-NBDG glucose uptake assay; settings: MDA-MB-453, 100 nM insulin for 45 minutes, 30 μg/mL 2-NBDG
Method: as §1, §2

Compound | relative glycolysis rate ([1-13C]glucose to [3-13C]lactate) (MDA-MB-231 cells) | glucose uptake (2-NBDG) in response to insulin stimulation (MDA-MB-231) | glucose uptake (2-NBDG) in response to insulin stimulation (MDA-MB-453)
O=c1cc(-c2cccc3c2Sc2ccccc2S3)oc(N2CCOCC2)c1 [KU-55933] | significant inhibition of glycolysis rate | – | –
insulin | – | enhanced glucose uptake | enhanced glucose uptake
